In patent publication US10457710B2, “Antimicrobial peptides, their variants and uses” (priority 2015, dated 2019):
Where a SMILES comes first, the peptide text is derived from it. [ ]: non-standard residue; d: D form.

How the values were obtained:
Format in all cases: cell-based
C. parapsilosis = assay: MIC, clinical yeast strains; settings: D-form peptide, concentrations tested 0.125 to 128 μg/ml
Outline: (§1)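 Broth microdilution with inocula adjusted to 5.0×10^5 cfu/ml; peptides tested at 0.125 to 128 μg/ml and incubated at 37° C for 20 to 24 hours. Bacteria were grown in Mueller Hinton broth, yeasts in potato dextrose broth. MIC was the lowest concentration showing no visible growth.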

Candida albicans = assay: MIC, clinical yeast strains; settings: D-form peptide, concentrations tested 0.125 to 128 μg/ml
Outline: as §1

C. glabrata = assay: MIC, clinical yeast strains; settings: D-form peptide, concentrations tested 0.125 to 128 μg/ml
Outline: as §1

[1] = tested on: clinical strains of Proteus mirabilis; assay: MIC, microdilution, clinical strains; settings: 0.02% BSA, 0.2% acetic acid
Outline: (§2)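 Overnight MH agar colonies were suspended in MH broth to 5.0×10^5 cfu/ml, mixed with serial peptide dilutions (0.125–128 μg/ml) and incubated at 37° C for 20 to 24 hours. Yeast MICs were run the same way in potato dextrose broth, and wells were scored visually.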

[2] = tested on: clinical strains of Serratia marcescens; assay: MIC, microdilution, clinical strains; settings: 0.02% BSA, 0.2% acetic acid
Outline: as §2

[3] = tested on: clinical strains of P. aeruginosa; assay: MIC, microdilution, clinical strains; settings: 0.02% BSA, 0.2% acetic acid
Outline: as §2

[4] = tested on: clinical strains of E. cloacae; assay: MIC, microdilution, clinical strains; settings: 0.02% BSA, 0.2% acetic acid
Outline: as §2

[5] = tested on: clinical strains of E. coli; assay: MIC, microdilution, clinical strains; settings: microdilution, Muller Hinton broth-cation adjusted, 0.02% BSA, 0.2% acetic acid
Outline: as §2

[6] = tested on: clinical strains of K. pneumoniae; assay: MIC, microdilution, clinical strains; settings: 0.02% BSA, 0.2% acetic acid
Outline: as §2

[7] = tested on: clinical strains of S. aureus; assay: MIC, microdilution, clinical strains; settings: 0.02% BSA, 0.2% acetic acid
Outline: as §2

[8] = tested on: clinical strains of S. pneumoniae; assay: MIC, microdilution, clinical strains; settings: 0.02% BSA, 0.2% acetic acid
Outline: as §2

[9] = tested on: clinical strains of Acinetobacter baumannii; assay: MIC, microdilution, clinical strains; design: unit: μg/ml; settings: 0.02% BSA, 0.2% acetic acid
Outline: as §2

[10] = tested on: clinical strains of A. johnsonii; assay: MIC, microdilution, clinical strains; design: unit: μg/ml; settings: Acinetobacter johnsonii strain 1, Muller Hinton broth-cation adjusted, 0.02% BSA, 0.2% acetic acid
Outline: as §1

C. quillermondiae = assay: MIC, clinical yeast strains; settings: clinical yeast strain 1; D-form peptide; concentrations tested 0.125 to 128 μg/ml
Outline: as §1

Compound: CC[C@@H](C)[C@@H](NC(=O)[C@@H](CCSC)NC(=O)[C@@H](C)NC(=O)[C@@H](CCCNC(=N)N)NC(=O)[C@@H](Cc1c[nH]c2ccccc12)NC(=O)[C@@H](CCCCN)NC(=O)[C@H](N)CCCNC(=N)N)C(=O)N[C@H](CCCNC(=N)N)C(=O)N[C@H](CC(C)C)C(=O)N[C@H](Cc1c[nH]cn1)C(=O)N[C@H](C)C(=O)N[C@H](CCCCN)C(=O)N[C@H](CCCNC(=N)N)C(=O)N[C@H](CC(C)C)C(=O)N[C@H](CCCNC(=N)N)C(=O)N[C@H](CCCCN)C(=O)O [Chain104D] (H-[dR][dK][dW][dR][dA][dM][dI][dR][dL][dH][dA][dK][dR][dL][dR][dK]-OH)
- Minimum inhibitory concentration, C. parapsilosis strain 1 (C. parapsilosis; clinical yeast strain 1): 4
- Minimum inhibitory concentration, C. parapsilosis strain 2 (C. parapsilosis; clinical yeast strain 2): 4
- Minimum inhibitory concentration, C. parapsilosis strain 3 (C. parapsilosis; clinical yeast strain 3): 4
- Minimum inhibitory concentration, C. parapsilosis strain 4 (C. parapsilosis; clinical yeast strain 4): 2
- Minimum inhibitory concentration, Candida albicans strain 1 (Candida albicans; clinical yeast strain 1): 8
- Minimum inhibitory concentration, Candida albicans strain 2 (Candida albicans; clinical yeast strain 2): 8
- Minimum inhibitory concentration, Candida albicans strain 3 (Candida albicans; clinical yeast strain 3): 8
- Minimum inhibitory concentration, Candida albicans strain 4 (Candida albicans; clinical yeast strain 4): 8
- Minimum inhibitory concentration, Candida albicans strain 5 (Candida albicans; clinical yeast strain 5): 8
- Minimum inhibitory concentration, C. glabrata strain 1 (C. glabrata; clinical yeast strain 1): 8
- Minimum inhibitory concentration, C. glabrata strain 2 (C. glabrata; clinical yeast strain 2): 8
- Minimum inhibitory concentration, C. glabrata strain 3 (C. glabrata; clinical yeast strain 3): 8
- Minimum inhibitory concentration, C. glabrata strain 4 (C. glabrata; clinical yeast strain 4): 16
- Minimum inhibitory concentration ([1]; Proteus mirabilis strain 1, Muller Hinton broth-cation adjusted): >128
- Minimum inhibitory concentration ([1]; Proteus mirabilis strain 2, Muller Hinton broth-cation adjusted): 32
- Minimum inhibitory concentration ([1]; Proteus mirabilis strain 3, Muller Hinton broth-cation adjusted): 128
- Minimum inhibitory concentration ([1]; Proteus mirabilis strain 4, Muller Hinton broth-cation adjusted): >128
- Minimum inhibitory concentration ([1]; Proteus mirabilis strain 5, Muller Hinton broth-cation adjusted): >128
- Minimum inhibitory concentration ([2]; Serratia marcescens strain 1, Muller Hinton broth-cation adjusted): >128
- Minimum inhibitory concentration ([2]; Serratia marcescens strain 2, Muller Hinton broth-cation adjusted): >128
- Minimum inhibitory concentration ([2]; Serratia marcescens strain 3, Muller Hinton broth-cation adjusted): >128
- Minimum inhibitory concentration ([2]; Serratia marcescens strain 4, Muller Hinton broth-cation adjusted): >128
- Minimum inhibitory concentration ([2]; Serratia marcescens strain 5, Muller Hinton broth-cation adjusted): 128
- Minimum inhibitory concentration ([3]; Pseudomonas aeruginosa strain 1, Muller Hinton broth-cation adjusted): 4
- Minimum inhibitory concentration ([3]; Pseudomonas aeruginosa strain 2, Muller Hinton broth-cation adjusted): 2
- Minimum inhibitory concentration ([3]; Pseudomonas aeruginosa strain 3, Muller Hinton broth-cation adjusted): 4
- Minimum inhibitory concentration ([3]; Pseudomonas aeruginosa strain 4, Muller Hinton broth-cation adjusted): 2
- Minimum inhibitory concentration ([3]; Pseudomonas aeruginosa strain 5, Muller Hinton broth-cation adjusted): 1
- Minimum inhibitory concentration ([4]; Enterobacter cloacae strain 1, Muller Hinton broth-cation adjusted): 4
- Minimum inhibitory concentration ([4]; Enterobacter cloacae strain 2, Muller Hinton broth-cation adjusted): 4
- Minimum inhibitory concentration ([4]; Enterobacter cloacae strain 3, Muller Hinton broth-cation adjusted): 8
- Minimum inhibitory concentration ([4]; Enterobacter cloacae strain 4, Muller Hinton broth-cation adjusted): 4
- Minimum inhibitory concentration ([4]; Enterobacter cloacae strain 5, Muller Hinton broth-cation adjusted): 2
- Minimum inhibitory concentration ([5]; Escherichia coli strain 1): 4
- Minimum inhibitory concentration ([5]; Escherichia coli strain 2): 4
- Minimum inhibitory concentration ([5]; Escherichia coli strain 3): 4
- Minimum inhibitory concentration ([5]; Escherichia coli strain 4): 4
- Minimum inhibitory concentration ([5]; Escherichia coli strain 5): 4
- Minimum inhibitory concentration ([6]; Klebsiella pneumoniae strain 1, Muller Hinton broth-cation adjusted): 8
- Minimum inhibitory concentration ([6]; Klebsiella pneumoniae strain 2, Muller Hinton broth-cation adjusted): 4
- Minimum inhibitory concentration ([6]; Klebsiella pneumoniae strain 3, Muller Hinton broth-cation adjusted): 8
- Minimum inhibitory concentration ([6]; Klebsiella pneumoniae strain 4, Muller Hinton broth-cation adjusted): 16
- Minimum inhibitory concentration ([6]; Klebsiella pneumoniae strain 5, Muller Hinton broth-cation adjusted): 4
- Minimum inhibitory concentration ([7]; Staphylococcus aureus strain 1, Muller Hinton broth-cation adjusted): 4
- Minimum inhibitory concentration ([7]; Staphylococcus aureus strain 2, Muller Hinton broth-cation adjusted): 2
- Minimum inhibitory concentration ([7]; Staphylococcus aureus strain 3, Muller Hinton broth-cation adjusted): 4
- Minimum inhibitory concentration ([7]; Staphylococcus aureus strain 4, Muller Hinton broth-cation adjusted): 2
- Minimum inhibitory concentration ([7]; Staphylococcus aureus strain 5, Muller Hinton broth-cation adjusted): 4
- Minimum inhibitory concentration ([8]; Streptococcus pneumoniae strain 1, Muller Hinton broth-cation adjusted): 4
- Minimum inhibitory concentration ([8]; Streptococcus pneumoniae strain 2, Muller Hinton broth-cation adjusted): 2
- Minimum inhibitory concentration ([8]; Streptococcus pneumoniae strain 3, Muller Hinton broth-cation adjusted): 1
- Minimum inhibitory concentration ([8]; Streptococcus pneumoniae strain 4, Muller Hinton broth-cation adjusted): 4
- Minimum inhibitory concentration ([8]; Streptococcus pneumoniae strain 5, Muller Hinton broth-cation adjusted): 1
- Minimum inhibitory concentration ([9]; Acinetobacter baumannii strain 1, Muller Hinton broth-cation adjusted): 16
- Minimum inhibitory concentration ([9]; Acinetobacter baumannii strain 2, Muller Hinton broth-cation adjusted): 8
- Minimum inhibitory concentration ([9]; Acinetobacter baumannii strain 3, Muller Hinton broth-cation adjusted): 8
- Minimum inhibitory concentration ([9]; Acinetobacter baumannii strain 4, Muller Hinton broth-cation adjusted): 4
- Minimum inhibitory concentration ([9]; Acinetobacter baumannii strain 5, Muller Hinton broth-cation adjusted): 8
- Minimum inhibitory concentration [10]: 8
- Minimum inhibitory concentration, C. quillermondiae strain 1 (C. quillermondiae): 4
